{"source": "patent US20070196514A1", "about": "“Prostate cancer treatment with glycogen synthase kinase-3beta inhibitors” (priority 2006, published 2007)", "key": {"LNCaP cells [1]": {"tested_on": "LNCaP cells", "assay": "Affymetrix cDNA microarray for LiCl-induced changes", "type": "cell-based, human", "method": "Genechip® arrays (Affymetrix Inc, Santa Clara, Calif.) used herein contain almost 45,000 probe sets representing more than 39,000 transcripts derived from approximately 33,000 well substantial human genes. The in vitro-transcription labeling is conducted using the EnzoBio array high yield RNA transcript labeling kit (Affymetrix). Ten micrograms of total RNAs were used for the first strand cDNA synthesis using the SuperscriptChoice system (Invitrogen).\nGenechips were hybridized for 16 hours at 45° C. and 60 rpm in Genechip hybridization oven Model 640. After washing the Genechip, the signal intensity was detected using the Agilent Gene Array scanner.\nThis example investigated the genes that are altered by GSK-3β inhibition. This approach started with a genome-wide screening of gene expression with cDNA Microarray to identify the altered genes, which was verified by RT-PCR and Western blot at mRNA and protein levels, respectively. After sequestered in serum-free media for 24 hours, LNCaP cells were left untreated or treated with LiCl in a full culture media for 18 hours. The total cellular RNAs were extracted from the cells for cDNA Microarray analysis."}, "AR-null PC-3 xenografts": {"tested_on": "AR-null PC-3 xenografts", "assay": "mouse xenograft model, protocol A", "type": "in vivo, nude mice", "conditions": "LiCl 2 mg/kg i.p. daily", "method": "All animal studies were conducted under an approved Institutional Animal Care and Use Committee protocol. Single cell suspensions (2×10^6 cells in 0.1 ml of RPMI1640 medium plus 10% FBS) were inoculated subcutaneously (s.c.) into the rear flanks (two sites/mouse) of 6 to 7 weeks old male nude mice (Charles River, Wilmington, Mass.). For protocol A, mice were randomly divided into two groups (5 animals each). On next day after inoculation, one group of animals received i.p. injection of LiCl at a daily dose of 2 mg/kg body weight. LiCl was dissolved in PBS. The control groups of animals received PBS alone in the same volume. Xenograft development and growth were monitored for 8 weeks. The tumor dimensions were measured twice a week. The tumor volume was calculated by the formula of L×W×H×0.5236 (Miyake 2001). At the end of treatment, xenograft tumors were extirpated, and the final tumor size and weight, as well as animal weight were measured. For protocol B, treatment began until tumor became palpable or 50 mm^3 in size, and LiCl or PBS was injected (5 animals each group) as above for a two-week course. Tumor size and weight were measured at the end of treatment. For BrdU in vivo labeling, the animals were injected i.p. with 0.5 ml of a 10-mM BrdU solution (Invitrogen) 2 hours before sacrifice. For experiments involving LNCaP-BclxL SB216763 subline cells (Liao 2005) were inoculated as above, and SB216763 treatment was started two weeks later when palpable xenografts were established. The SB216763 for animal use was purchased from Biomol (Plymouth Meeting, Pa.) and dissolved in a formula containing 50% N,N-dimethylacetamide (“DMA”), 45% polyethylene glycol 400 (“PEG-400”) and 5% Tween-80. SB216763 (2 mg/kilogram/bodyweight) or the solvent in 20 μl volume was injected i.p. three times a week. Tumor growth was monitored as discussed herein.\nThis example investigated GSK-3β inhibitor-induced suppression of cancer cell growth in vivo. A mouse xenograft model was used to examine the effect of GSK-3β inhibitor on tumor growth in two different strategies (protocol A and B). In both protocols, LiCl was delivered at a daily dose i.p. of 2 mg/kg of body weight. This dose level is more than 100-fold lower than a therapeutic dose for mental diseases in mouse (Noble 2005) or human (Moore 2002).\nIn protocol A, LiCl treatment was started on the same day when AR-null PC-3 cancer cells were inoculated into animals. AR-null PC-3 xenografts were developed around 4 weeks after inoculation in PBS-treated control animals."}, "LNCaP cells [2]": {"tested_on": "LNCaP cells", "assay": "Western blot of cell cycle-related proteins", "type": "cell-based, human", "method": "Western blot was carried out as described previously (Liao 2004, Liao 2003, and Liao 2005). Briefly, cells were pellets and lysed in radio-immunoprecipitation assay (“RIPA”) buffer containing protease inhibitors (Half™ Protease Inhibitor Cocktail Kit, PIERCE, Rockford, Ill.). Proteins were separated on SDS-PAGE gels and transferred to Immuno-Blot™ PVDF membrane (BIO-RAD, Hercules, Calif.). Membranes were blocked in a tris-buffered solution plus Tween 20 (“TBST”) solution with 5% nonfat dry milk and incubated with primary antibodies overnight at 4° C. Immunoreactive signals were detected by horseradish peroxidase-conjugated secondary antibodies (Santa Cruz Biotech., Santa Cruz, Calif.) followed by SuperSingnal® WestFeml® Maximum Sensitivity Substrate (PIERCE).\nTo verify those alterations at a protein level, two series experiments were conducted using Western blot technique. The first involved a time-course experiment. After serum starvation, LNCaP cells were left untreated or treated as before with LiCl for up to 24 hours. Cells were harvested at 18-24 hours.\nNext, a dose-response experiment was performed. Following serum starvation for 24 hours, LNCaP cells were treated with BIO at different doses for another 24 hours. Control cells received the vehicle as treatment."}, "LNCaP cells [3]": {"tested_on": "LNCaP cells", "assay": "trypan blue viable cell counting", "type": "cell-based, human", "method": "For cell counting assay, cells were seeded at the density of 5×10^4 cells in 12-well plates in duplicates and allowed for attachment overnight. Cells were harvested daily for three days and the number of viable cells was counted using a hemocytometer after staining in trypan blue solution (Liao 2003).\nFirst, the effect of LiCl on cell growth was investigated. AR-positive, androgen-dependent LNCaP cells or AR-null PC-3 cells were seeded in a 12-well plate overnight and then treated with or without LiCl in different doses."}, "[4]": {"conditions": "LiCl in full culture media 18 hours, down-regulation"}, "[5]": {"conditions": "LiCl in full culture media 18 hours, up-regulation"}, "[6]": {"conditions": "protocol A, end of 8-week treatment"}}}
{"smiles": "[Cl-].[Li+]", "note": "[LiCl, Lithium chloride]", "values": [{"measurement": "fold change, Cyclin A2 (203418_at)", "setting": "LNCaP cells [1]; [4]", "result": "−4.19"}, {"measurement": "fold change, Cyclin E2 (205034_at)", "setting": "LNCaP cells [1]; [4]", "result": "−2.99"}, {"measurement": "fold change, Cyclin E2 (211814_s_at)", "setting": "LNCaP cells [1]; [4]", "result": "−2.18"}, {"measurement": "fold change, cdc6 (203967_at)", "setting": "LNCaP cells [1]; [4]", "result": "−3.47"}, {"measurement": "fold change, cdc6 (203968_s_at)", "setting": "LNCaP cells [1]; [4]", "result": "−3"}, {"measurement": "fold change, cdc25c (205167_s_at)", "setting": "LNCaP cells [1]; [4]", "result": "−2.74"}, {"measurement": "fold change, cdc25c (217010_s_at)", "setting": "LNCaP cells [1]; [4]", "result": "−5.99"}, {"measurement": "fold change, cyclin B2 (202705_at)", "setting": "LNCaP cells [1]; [4]", "result": "−1.4"}, {"measurement": "fold change, p27KIP1 (209112_at)", "setting": "LNCaP cells [1]; [4]", "result": "−1.17"}, {"measurement": "fold change, cyclin D1 (203665_at)", "setting": "LNCaP cells [1]; [5]", "result": 2.07}, {"measurement": "fold change, cyclin D1 (208712_at)", "setting": "LNCaP cells [1]; [5]", "result": 1.84}, {"measurement": "fold change, cyclin G2 (202770_s_at)", "setting": "LNCaP cells [1]; [5]", "result": 1.87}, {"measurement": "fold change, p21CIP1 (202284_s_at)", "setting": "LNCaP cells [1]; [5]", "result": 5.7}, {"measurement": "fold change, p57KIP2 (213348_at)", "setting": "LNCaP cells [1]; [5]", "result": 1.79}, {"measurement": "microarray expression of cyclin D1", "setting": "LNCaP cells [1]; LiCl treatment", "result": "slight increase"}, {"measurement": "microarray expression of other cell cycle related proteins (cyclin B, cdc2, p27KIP1, p57KIP2)", "setting": "LNCaP cells [1]; LiCl treatment", "result": "No significant changes"}, {"measurement": "treatment signal, p57KIP2 (213348_at)", "setting": "LNCaP cells [1]; LiCl-treated, control signal 137.6", "result": 246.4}, {"measurement": "treatment signal, cdc25c (217010_s_at)", "setting": "LNCaP cells [1]; LiCl-treated, control signal 207.8", "result": 34.7}, {"measurement": "treatment signal, cyclin D1 (203665_at)", "setting": "LNCaP cells [1]; LiCl-treated, control signal 294.7", "result": 609.3}, {"measurement": "treatment signal, cyclin G2 (202770_s_at)", "setting": "LNCaP cells [1]; LiCl-treated, control signal 325.3", "result": 606.9}, {"measurement": "treatment signal, p21CIP1 (202284_s_at)", "setting": "LNCaP cells [1]; LiCl-treated, control signal 430.9", "result": 2457.2}, {"measurement": "treatment signal, cdc25c (205167_s_at)", "setting": "LNCaP cells [1]; LiCl-treated, control signal 442.3", "result": 161.2}, {"measurement": "treatment signal, Cyclin E2 (211814_s_at)", "setting": "LNCaP cells [1]; LiCl-treated, control signal 852.7", "result": 391.2}, {"measurement": "treatment signal, cyclin D1 (208712_at)", "setting": "LNCaP cells [1]; LiCl-treated, control signal 853.9", "result": 1568.2}, {"measurement": "treatment signal, cdc6 (203968_s_at)", "setting": "LNCaP cells [1]; LiCl-treated, control signal 1132.5", "result": 377.9}, {"measurement": "treatment signal, cdc6 (203967_at)", "setting": "LNCaP cells [1]; LiCl-treated, control signal 1136", "result": 327}, {"measurement": "treatment signal, Cyclin E2 (205034_at)", "setting": "LNCaP cells [1]; LiCl-treated, control signal 1268.1", "result": 423.8}, {"measurement": "treatment signal, p27KIP1 (209112_at)", "setting": "LNCaP cells [1]; LiCl-treated, control signal 1365.8", "result": 1171.7}, {"measurement": "treatment signal, Cyclin A2 (203418_at)", "setting": "LNCaP cells [1]; LiCl-treated, control signal 1529.8", "result": 364.7}, {"measurement": "treatment signal, cyclin B2 (202705_at)", "setting": "LNCaP cells [1]; LiCl-treated, control signal 2379.1", "result": 1693.9}, {"measurement": "animal body weight and daily activities, treatment vs control", "setting": "AR-null PC-3 xenografts; nude mice", "result": "no significant difference"}, {"measurement": "abnormality of daily activities / side effects", "setting": "AR-null PC-3 xenografts; nude mice, both protocols A and B", "result": "no obvious abnormality of daily activities or any sign of side effect"}, {"measurement": "xenograft development, time after inoculation", "setting": "AR-null PC-3 xenografts; protocol A, PBS control around 4 weeks", "result": "6-7 weeks"}, {"measurement": "tumor volume vs PBS control", "setting": "AR-null PC-3 xenografts; [6]", "result": "significant reduction"}, {"measurement": "tumor weight vs PBS control", "setting": "AR-null PC-3 xenografts; [6]", "result": "significant reduction"}, {"measurement": "protein levels of cyclin B, PCNA, pRb, cdc2, cdc42 and GSK-3β (Western blot)", "setting": "LNCaP cells [2]; LiCl time-course", "result": "no significant change"}, {"measurement": "serum-induced increase of cyclins A and E, cdc6 and cdc25C protein (Western blot)", "setting": "LNCaP cells [2]; LiCl time-course up to 24 hours", "result": "dramatically suppressed"}, {"measurement": "protein levels of cyclin D1 (Western blot)", "setting": "LNCaP cells [2]; LiCl time-course, vs control", "result": "slightly higher"}, {"measurement": "p21CIP1 protein expression (Western blot)", "setting": "LNCaP cells [2]; LiCl time-course, vs untreated control", "result": "increased significantly"}, {"measurement": "inhibition of cell growth (viable cell count)", "setting": "LNCaP cells [3]; LiCl 10 mM", "result": "significantly inhibited"}, {"measurement": "mean doubling-time", "setting": "LNCaP cells [3]; LiCl 10 mM (no treatment 23.7 hours)", "result": 33.3, "unit": "h"}, {"measurement": "inhibition of cell growth (viable cell count)", "setting": "LNCaP cells [3]; LiCl at a dose of less than 3 mM, up to three days", "result": "no obvious inhibition"}]}
